Source: PMC8877061, “Antifungal and Antibiofilm Activity of Cyclic Temporin L Peptide Analogues against Albicans and Non-Albicans Candida Species” (Pharmaceutics, 2022)
Values after ≈ are worked out from the molar mass of the structure shown. “Also recorded” adds a separate entry of the source. Like-named read-outs stand apart in the source and are kept apart here. Positions of bridges follow the written chain, without caps; N, C: chain ends. Non-standard residues stand in square brackets, D forms with d. Residues, ends and D or L forms follow the SMILES beside them. Triazole bridges read from a SMILES are 1,4-linked. Lys(N3) = [N-]=[N+]=NCCCC[C@H](N)C(=O)O; Pra = C#CC[C@H](N)C(=O)O

Key:
[1] = tested on: C. auris DSM 21092; type: cell-based; conditions: DSM 21092, 24 h
Procedure: (§1) C. albicans ATCC 90028, C. auris DSM 21092, C. glabrata DSM 11226, C. tropicalis DSM11951 and C. parapsilosis DSM 4874 grown on YPD Agar (1% w/v yeast extract, 2% w/v peptone, 2% w/v glucose, 1.5% Agar) were cultured in Tryptone soya broth supplemented with 0.1% glucose for 16–18 h at 37 °C, washed twice using sterile phosphate-buffered saline (PBS) and standardized to […] as required for the experiments. RPMI1640 medium (Thermo Fisher Scientific, Waltham, MA, USA) buffered to a pH of 7.0 with 0.165 M MOPS was used for growing the biofilms of all Candida species.
(§2) The antifungal activity of peptides against all five Candida species was determined according to CLSI-M27-A3 [33], as reported previously. Briefly, the compounds were tested at concentrations ranging from […] to 50 μM, and the organism suspensions were adjusted to an inoculum of 10^6 cell/mL at OD 590 nm in RPMI 1640, added to the 96-well plate and incubated at 37 °C for 24 h. The minimum inhibitory concentration (MIC) values were determined as the lowest concentration inhibiting fungal growth at 590 nm using a microplate reader (Synergy™ H4; BioTek Instruments, Inc., Winooski, VT, USA). […] The MFC was the lowest concentration that yielded no colony growth on the agar. The MFC/MIC ratio was calculated to determine whether the substance had fungistatic (MFC/MIC ≥ 4) or fungicidal (MFC/MIC < 4) activity.

[2] = tested on: C. glabrata DSM 11226; type: cell-based
Procedure: as §1, §2

[3] = tested on: C. tropicalis DSM 11951; type: cell-based
Procedure: as §1, §2

[4] = tested on: C. parapsilosis DSM 5784; type: cell-based; conditions: DSM 5784, 24 h
[5] = Circular dichroism in liposomes mimicking eukaryotic membranes; type: physicochemical; conditions: SUVs DOPC:Chol 70:30, peptide 80 μM; for helical content: CD, phosphate buffer 5 mM pH 7.4, 25 °C, from [θ]222
Procedure: (§3) The circular dichroism spectra of the selected peptides (3, 7, 15 and 16) were recorded in small unilamellar vesicles (SUVs) composed of PE/PC/PI/Ergosterol (5:4:1:2, w/w/w/w, final lipid concentration = 0.01 mM) and DOPC/Chol (70:30, ratio in moles, final lipid concentration = 0.1 mM), between 190 and 260 nm on a JASCO J-710 CD spectropolarimeter at 25 °C using quartz cells with a 0.1-cm path length. The SUVs were prepared as reported in the following protocol. Once the lipid films were prepared as described above, they were hydrated with a phosphate buffer (5 mM, pH 7.4) (DOPC:Chol) or water (PE/PC/PI/Ergosterol) for 1 h and sonicated for 40 min. The peptides were dissolved in water to form a sample with a concentration of 80 μM in SUVs made of DOPC/Chol, while a peptide concentration of 10 μM was used in SUVs made of PE/PC/PI/Ergosterol. We accumulated the data three times, and all spectral data were subtracted from the background. Each spectrum converted the signal to the mean molar ellipticity, and we calculated the ratio of the ellipticities at 222 and 208 nm to discriminate between the monomeric and oligomeric states of the helices. The helix content was calculated as follows: [θ]222/(−40,000[1 − 2.5/n)], where [θ]222 is the ellipticity measurement at 222 nm and n is the number of amino acid residues.

[6] = ANTS/DPX leakage, fungal membrane-like LUVs; conditions: for leakage activity against liposomes mimicking the fungal membrane: PE/PC/PI/ergosterol LUVs, concentration not given; for liposome leakage (ANTS release), fungal membrane-like LUVs: peptide 20 μM, PE/PC/PI/ergosterol LUVs 0.1 mM lipid, PBS pH 7.2, 10 min, fluorescence 385/512 nm
Procedure: ANTS/DPX-entrapped large unilamellar vesicles (LUVs) composed of PE/PC/PI/Ergosterol (5:4:1:2, w/w/w/w) and Chol/DOPC (70:30, ratio in moles) were prepared by the extrusion method as previously described in [28]. First, the lipid films were prepared by dissolving lipids in the proper ratio in chloroform to have a final concentration of 0.1 mM and then dried under a nitrogen gas stream. The probes of ANTS (12.5 mM) and DPX (45 mM) dissolved in water were added to the lipid films, and the mixture was freeze-dried overnight. The lipid films with encapsulated ANTS and DPX were hydrated with a PBS 1× buffer (pH = 7.2), vortexed for 1 h, freeze-thawed 6 times and extruded 10 times through 0.1-μm pore size polycarbonate filters to obtain the LUVs. The LUVs with entrapped ANTS and DPX were separated from the free ANTS and DPX by gel filtration chromatography on a Sephadex G-50 column (1.5 × 10 cm). The assay was based on the measurement of dequenching of ANTS by DPX when the LUVs were incubated with peptide concentrations of 5, 10, 15, 20, 30 and 50 μM. The increase in ANT fluorescence was recorded at an excitation fluorescence at 385 nm (slit width: 5 nm) and a fluorescence emission at 512 nm (slit width: 5 nm) for 10 min after the addition of the peptide. The destruction of all LUVs and the complete release of ANTs were obtained after treatment with 10% Triton-X. The percentage of liposome leakage was calculated as %leakage = (Fi − F0)/(Ft − F0), where F0 represents the fluorescence of the intact LUVs before the addition of the peptide and Fi and Ft are the intensities of the fluorescence achieved after peptide and Triton-X treatment, respectively.

[7] = tested on: C. albicans ATCC 90028; type: cell-based; conditions: ATCC 90028, 24 h
Procedure: as §1, §2

[8] = Circular dichroism in liposomes mimicking fungal membranes; type: physicochemical; conditions: SUVs PE/PC/PI/ergosterol
Procedure: as §3, with “The peptides were dissolved in water to form a sample with a concentration of 80 μM in SUVs made of DOPC/Chol, while a peptide concentration of 10 μM was used in SUVs made of PE/PC/PI/Ergosterol.” left out

[9] = CLSI-M27-A3, RPMI 1640, 10^6 cell/mL, 37 °C, 24 h, read at 590 nm

SMILES | MFC, C. auris DSM 21092 [1] | MIC, C. auris DSM 21092 [1] | MFC, C. glabrata DSM 11226 ([2]; DSM 11226, 24 h) | MIC, C. glabrata DSM 11226 ([2]; DSM 11226, 24 h) | MFC, C. tropicalis DSM 11951 ([3]; DSM 11951, 24 h) | MIC, C. tropicalis DSM 11951 ([3]; DSM 11951, 24 h) | MFC, C. parapsilosis DSM 5784 [4] | helical content [5] | leakage activity against liposomes mimicking the fungal membrane [6] | liposome leakage (ANTS release), fungal membrane-like LUVs [6] | MFC, C. albicans ATCC 90028 [7] | ratio of the ellipticities at 222 and 208 nm ([5]; >1 = helical aggregates) | MIC, C. glabrata DSM 11226 [2, 9] | MIC, C. tropicalis DSM 11951 [3, 9] | conformation by CD in DOPC:Chol liposomes ([5]; 25 °C) | conformation by CD in fungal membrane-like SUVs, 10 μM ([8]; peptide 10 μM) | conformation by CD in fungal membrane-like SUVs, 50 μM ([8]; peptide 50 μM)
CC[C@H](C)[C@H](NC(=O)[C@H](CCCNC(=N)N)NC(=O)[C@@H]1CCC(=O)NCCCC[C@H](NC(=O)[C@H](Cc2ccccc2)NC(=O)[C@H](Cc2c[nH]c3ccccc23)NC(=O)[C@@H]2CCCN2C(=O)[C@@H](NC(=O)[C@@H](N)Cc2ccccc2)C(C)C)C(=O)N[C@@H](CCCCN)C(=O)N[C@@H](Cc2ccccc2)C(=O)N[C@H](CC(C)C)C(=O)N1)C(=O)N[C@@H](CC(C)C)C(N)=O [compound 3] (H-FVPWFKKF[dL]ERIL-NH2; lactam 6-10; N-terminus assumed) | 50 µM | 50 µM | 50 µM | 50 µM | 50 µM | 50 µM | 50 µM (≈ 85.2 µg/mL) | ~ 13% | ~30% | ~ 30% | – | – | – | – | – | – | –
CC(C)C[C@H](NC(=O)[C@@H]1CCCCn2cc(nn2)C[C@H](NC(=O)[C@H](CCCCN)NC(=O)[C@H](CO)NC(=O)[C@H](Cc2ccccc2)NC(=O)[C@H](Cc2c[nH]c3ccccc23)NC(=O)[C@@H]2CCCN2C(=O)[C@@H](NC(=O)[C@@H](N)Cc2ccccc2)C(C)C)C(=O)N[C@H](CC(C)C)C(=O)NCC(=O)N[C@@H](CCCNC(=N)N)C(=O)N1)C(N)=O [compound 7] (H-FVPWFSK[Pra][dL]GR[Lys(N3)]L-NH2; triazole 8-12; N-terminus assumed) | >50 µM | 50 µM | 50 µM | 50 µM | 50 µM | 50 µM | 50 µM (≈ 79.9 µg/mL) | ~ 23% | – | lower ANTS release | – | – | – | – | – | – | –
CC[C@H](C)[C@H](NC(=O)[C@H](CCCNC(=N)N)NC(=O)[C@@H]1CCCCNC(=O)CC[C@H](NC(=O)[C@H](Cc2ccccc2)NC(=O)[C@H](Cc2c[nH]c3ccccc23)NC(=O)[C@@H]2CCCN2C(=O)[C@@H](NC(=O)[C@@H](N)Cc2ccccc2)C(C)C)C(=O)N[C@@H](CCCCN)C(=O)N[C@@H](Cc2ccccc2)C(=O)N[C@H](CC(C)C)C(=O)N1)C(=O)N[C@@H](CC(C)C)C(N)=O [compound 15] (H-FVPWFEKF[dL]KRIL-NH2; lactam 6-10; N-terminus assumed) | >50 µM | 50 µM | >50 µM | 50 µM | >50 µM | 50 µM | 50 µM (≈ 85.2 µg/mL) | ~ 48% | less than 20% | lower ANTS release | > 50 µM | greater than 1 | – | – | – | – | –
CC[C@H](C)[C@H](NC(=O)[C@H](CCCNC(=N)N)NC(=O)[C@@H]1CSSC[C@H](NC(=O)[C@H](Cc2ccccc2)NC(=O)[C@H](Cc2c[nH]c3ccccc23)NC(=O)[C@@H]2CCCN2C(=O)[C@@H](NC(=O)[C@@H](N)Cc2ccccc2)C(C)C)C(=O)N[C@@H](CCCCN)C(=O)N[C@@H](Cc2ccccc2)C(=O)N[C@H](CC(C)C)C(=O)N1)C(=O)N[C@@H](CC(C)C)C(N)=O [compound 16] (H-FVPWFCKF[dL]CRIL-NH2; disulfide 6-10; N-terminus assumed) | >50 µM | 50 µM | 50 µM | – | 50 µM | – | >50 µM | – | – | lower ANTS release | >50 µM | – | 25 µM | 25 µM | random coil conformation | random coil conformation; also recorded: random coil structure | α-helical molecular aggregates
